In patent US12419874B2, “GLP-1R agonist compound and use thereof” (Chongqing Pharmaceutical Research Institute Co., Ltd., priority 2024, dated 2025):
pEC50: −log10 of the molar value.

Target: GLP-1R (Homo sapiens, UniProt P43220)
Assay: GLP-1R agonistic activity by One-Lite luciferase assay in HEK293-GLP-1R-luc cells (Example 59)
Type: cell-based
Details: 6 h incubation, read-out: cAMP EC50
Description: The agonistic activities of the compounds of the present disclosure on GLP-1R were evaluated by detecting the generation of cAMP.
• (1) Cell line: HEK293-GLP-1R-luc Stable Cell Line (Cobioer, CBP71117); • (2) Culture medium: DMEM+10% FBS (Gibco); • (3) Kit: One-Lite™ kit Luciferase Assay System (Vazyme). 2. Experimental Procedures • (1) HEK293-GLP1R cells were inoculated in a 96-well plate at a density of 30000 cells per well; • (2) 10× working solution of each compound was formulated; • (3) 10 μL of 10× working solution of each compound was added to corresponding well and incubated at 37° C. for 6 h; • (4) 100 μL of One-Lite Luciferase Assay Substrate formulated using One-Lite Luciferase Assay Buffer was added to each well; • (5) The plate was incubated at room temperature for 3 min; • (6) The plate was read by a multimode microplate reader to detect chemiluminescence. 3. Data Analysis • (1) % Activity was calculated by the following formula: % Activity=100−(Signalcmpd−SignalAve-PC)/(SignalAve-VC−SignalAve-PC)×100 • (2) The dose-response curve was plotted to calculate EC50: Y=Bottom+(Top−Bottom)/(1+10^(Log EC50−X)*HillSlope)) • X: log of agonist concentration; Y: Activity. 4. Experimental Results

GLP-1R, sequence (P43220 24-463): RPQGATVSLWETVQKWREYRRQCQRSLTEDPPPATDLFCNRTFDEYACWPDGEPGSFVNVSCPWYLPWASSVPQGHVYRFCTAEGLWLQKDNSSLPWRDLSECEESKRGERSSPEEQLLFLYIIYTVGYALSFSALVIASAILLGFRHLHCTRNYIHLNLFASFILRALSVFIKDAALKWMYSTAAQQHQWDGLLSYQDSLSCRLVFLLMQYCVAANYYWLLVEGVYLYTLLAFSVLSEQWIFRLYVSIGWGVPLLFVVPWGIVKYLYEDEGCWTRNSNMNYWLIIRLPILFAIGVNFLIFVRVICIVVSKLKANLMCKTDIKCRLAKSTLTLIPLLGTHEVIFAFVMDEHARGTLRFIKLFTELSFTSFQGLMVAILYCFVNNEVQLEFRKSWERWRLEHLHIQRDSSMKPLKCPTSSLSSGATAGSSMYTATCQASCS

In the case of `Cc1cc(-n2nc3c(c2-n2ccn(-c4ccc5c(cnn5C)c4F)c2=O)[C@H](C)N(C(=O)c2cc4cc([C@H]5CCOC(C)(C)C5)ccc4n2[C@@]2(c4noc(=O)[nH]4)C[C@@H]2C)CC32CN(S(C)(=O)=O)C2)cc(C)c1F` [Compound 168], the pEC50 was ≥ 7.70.
In the case of `Cc1cc(-n2nc3c(c2-n2ccn(-c4ccc5c(cnn5C5CC5)c4F)c2=O)[C@H](C)N(C(=O)c2cc4cc([C@H]5CCOC(C)(C)C5)ccc4n2[C@@]2(c4noc(=O)[nH]4)C[C@@H]2C)CC32CC2)cc(C)c1F` [Compound 221], the pEC50 was ≥ 7.70.
For `Cc1cc(-n2nc3c(c2-n2ccn(-c4ccc5c(cnn5C)c4F)c2=O)[C@H](C)N(C(=O)c2cc4cc([C@H]5CCOC(C)(C)C5)ccc4n2[C@@]2(c4noc(=O)[nH]4)C[C@@H]2C)CC32CCOC2)cc(C)c1F` (stereo partly shown) [Compound 29], the pEC50 was ≥ 7.70.
In the case of `Cc1cc(-n2nc3c(c2-n2ccn(-c4ccc5c(cnn5C)c4F)c2=O)[C@H](C)N(C(=O)c2cc4cc(N5CCOC(C)(C)C5)ccc4n2C2(c4noc(=O)[nH]4)CC2)CC32CC2)cc(C)c1F` [Compound 177], the pEC50 was ≥ 7.70.
`Cc1cc(-n2nc3c(c2-n2ccn(-c4ccc5c(cnn5C)c4F)c2=O)[C@H](C)N(C(=O)c2cc4cc([C@H]5CCOC(C)(C)C5)ccc4n2[C@@]2(c4noc(=O)[nH]4)C[C@@H]2C)CC32CCN(C)C2)cc(C)c1F` (stereo partly shown) [Compound 79] was tested, and the pEC50 was ≥ 7.70.
In the case of `CCOC1CC2(C1)CN(C(=O)c1cc3cc([C@H]4CCOC(C)(C)C4)ccc3n1[C@@]1(c3noc(=O)[nH]3)C[C@@H]1C)[C@@H](C)c1c2nn(-c2cc(C)c(F)c(C)c2)c1-n1ccn(-c2ccc3c(cnn3C)c2F)c1=O` (stereo partly shown) [Compound 187], the pEC50 was ≥ 7.70.
For `COCC(=O)N1CCC2(CC1)CN(C(=O)c1cc3cc([C@H]4CCOC(C)(C)C4)ccc3n1[C@@]1(c3noc(=O)[nH]3)C[C@@H]1C)[C@@H](C)c1c2nn(-c2cc(C)c(F)c(C)c2)c1-n1ccn(-c2ccc3c(cnn3C)c2F)c1=O` [Compound 158], the pEC50 was ≥ 7.70.
With `Cc1cc(-n2nc3c(c2-n2ccn(-c4ccc5c(cnn5C)c4F)c2=O)[C@H](C)N(C(=O)c2cc4cc([C@H]5CCOC(C)(C)C5)ccc4n2[C@@]2(c4noc(=O)[nH]4)C[C@@H]2C)CC32CCC(F)(F)C2)cc(C)c1F` (stereo partly shown) [Compound 212] the pEC50 was ≥ 7.70.
For `Cc1cc(-n2nc3c(c2-n2ccn(-c4ccc5c(cnn5C)c4F)c2=O)[C@H](C)N(C(=O)c2cc4cc([C@H]5CCOC(C)(C)C5)ccc4n2[C@@]2(c4noc(=O)[nH]4)C[C@@H]2C)CC32CCNC2)cc(C)c1F` (stereo partly shown) [Compound 195], the pEC50 was ≥ 7.70.
`Cc1cc(-n2nc3c(c2-n2ccn(-c4ccc5c(cnn5C)c4F)c2=O)[C@H](C)N(C(=O)c2cc4cc(C5CCOC(C)(C)C5)ccn4c2C2(c4noc(=O)[nH]4)CC2)CC32CC2)cc(C)c1F` (single isomer, unassigned) [Compound 185-B] gave a pEC50 of 7.00 to 7.70.
`Cc1cc(-n2nc3c(c2-n2ccn(-c4ccc5c(cnn5C)c4F)c2=O)[C@H](C)N(C(=O)c2cc4cc(N5CCOC(C)(C)C5)ccc4n2[C@@]2(c4noc(=O)[nH]4)C[C@@H]2C)CC32CC2)cc(C)c1F` [Compound 173] showed a pEC50 of 7.00 to 7.70.
In the case of `C[C@H]1c2c(nn(-c3ccc(F)c(C4CC4)c3)c2-n2ccn(-c3ccc4c(cnn4C)c3F)c2=O)C2(CC2)CN1C(=O)c1cc2cc([C@H]3CCOC(C)(C)C3)ccc2n1C1(c2noc(=O)[nH]2)CC1` [Compound 170], the pEC50 was ≥ 7.70.
For `Cc1cc(-n2nc3c(c2-n2ccn(-c4ccc5c(cnn5C)c4F)c2=O)[C@H](C)N(C(=O)c2cc4cc([C@H]5CCOC(C)(C)C5)ccc4n2[C@@]2(c4noc(=O)[nH]4)C[C@@H]2C)CC32CCN(C(=O)C3CC3)CC2)cc(C)c1F` [Compound 157], the pEC50 was ≥ 7.70.
`Cc1cc(-n2nc3c(c2-n2ccn(-c4ccc5c(cnn5C)c4F)c2=O)[C@H](C)N(C(=O)c2cc4cc(C5CCOCC5)ccc4n2[C@@]2(c4noc(=O)[nH]4)C[C@@H]2C)CC32CC2)cc(C)c1F` [Compound 175] showed a pEC50 of 7.00 to 7.70.
In the case of `Cc1cc(-n2nc3c(c2-n2ccn(-c4ccc5c(cnn5C)c4F)c2=O)[C@H](C)N(C(=O)c2cc4cc([C@H]5CCOC(C)(C)C5)ccc4n2[C@@]2(c4noc(=O)[nH]4)C[C@@H]2C)CC32CCCCC2)cc(C)c1F` [Compound 37], the pEC50 was 7.00 to 7.70.
In the case of `Cc1cc(-n2nc3c(c2-n2ccn(-c4ccc5c(cnn5C)c4F)c2=O)[C@H](C)N(C(=O)c2cc4cc([C@H]5CCOC(C)(C)C5)ccc4n2[C@@]2(c4noc(=O)[nH]4)C[C@@H]2C)CC32CCN(C(N)=O)CC2)cc(C)c1F` [Compound 162], the pEC50 was ≥ 7.70.
With `Cc1cc(-n2nc3c(c2-n2ccn(-c4ccc5c(cnn5C)c4F)c2=O)[C@H](C)N(C(=O)c2cc4cc([C@H]5CCOC(C)(C)C5)ccc4n2[C@@]2(c4noc(=O)[nH]4)C[C@@H]2C)CC32CCC(F)CC2)cc(C)c1F` (stereo partly shown) [Compound 201] the pEC50 was 7.00 to 7.70.
`Cc1cc(-n2nc3c(c2-n2ccn(-c4ccc5c(cnn5C)c4F)c2=O)[C@H](C)N(C(=O)c2cc4cc([C@H]5CCOC(C)(C)C5)ccc4n2[C@@]2(c4noc(=O)[nH]4)C[C@@H]2C)CC32CCN(C(=O)[C@H](C)N)CC2)cc(C)c1F` [Compound 160] was tested, and the pEC50 was ≥ 7.70.
For `Cc1cc(-n2nc3c(c2-n2ccn(-c4ccc5c(cnn5C)c4F)c2=O)[C@H](C)N(C(=O)c2cc4cc([C@H]5CCOC(C)(C)C5)ccc4n2[C@@]2(c4noc(=O)[nH]4)C[C@@H]2C)CC32CSC2)cc(C)c1F` [Compound 189], the pEC50 was ≥ 7.70.
In the case of `Cc1cc(-n2nc3c(c2-n2ccn(-c4ccc5c(cnn5C)c4F)c2=O)[C@H](C)N(C(=O)c2cc4cc([C@H]5CCOC(C)(C)C5)ccc4n2[C@@]2(c4noc(=O)[nH]4)C[C@@H]2C)CC32CC2(F)F)cc(C)c1F` (stereo partly shown) [Compound 225], the pEC50 was ≥ 7.70.
For `Cc1cc(-n2nc3c(c2-n2ccn(-c4ccc5c(cnn5C)c4F)c2=O)[C@H](C)N(C(=O)c2cn4cc(C5CCOC(C)(C)C5)ccc4c2C2(c4noc(=O)[nH]4)CC2)CC32CC2)cc(C)c1F` (stereo partly shown) [Compound 196], the pEC50 was ≥ 7.70.
`Cc1cc(-n2nc3c(c2-n2ccn(-c4ccc5c(cnn5C)c4F)c2=O)[C@H](C)N(C(=O)c2cc4cc([C@H]5CCOC(C)(C)C5)ccc4n2[C@@]2(c4noc(=O)[nH]4)C[C@@H]2C)CC32CC(OC3CC3)C2)cc(C)c1F` (stereo partly shown) [Compound 193] was tested, and the pEC50 was ≥ 7.70.
With `Cc1cc(-n2nc3c(c2-n2ccn(-c4ccc5c(cnn5C)c4F)c2=O)[C@H](C)N(C(=O)c2cc4cc([C@H]5CCOC(C)(C)C5)ccc4n2[C@@]2(c4noc(=O)[nH]4)C[C@@H]2C)CC32CCN(C=O)CC2)cc(C)c1F` [Compound 64] the pEC50 was ≥ 7.70.
In the case of `Cc1cc(-n2nc3c(c2-n2ccn(-c4ccc5c(cnn5C)c4F)c2=O)[C@H](C)N(C(=O)c2cc4cc([C@H]5CCOC(C)(C)C5)ccc4n2[C@@]2(c4noc(=O)[nH]4)C[C@@H]2C)CC32CCN(C(=O)C(F)(F)F)CC2)cc(C)c1F` [Compound 155], the pEC50 was ≥ 7.70.
With `CNC1CCC2(C1)CN(C(=O)c1cc3cc([C@H]4CCOC(C)(C)C4)ccc3n1[C@@]1(c3noc(=O)[nH]3)C[C@@H]1C)[C@@H](C)c1c2nn(-c2cc(C)c(F)c(C)c2)c1-n1ccn(-c2ccc3c(cnn3C)c2F)c1=O` (stereo partly shown) [Compound 229] the pEC50 was ≥ 7.70.
For `Cc1cc(-n2nc3c(c2-n2ccn(-c4ccc5c(cnn5C)c4F)c2=O)[C@H](C)N(C(=O)c2cc4cc([C@H]5CCOC(C)(C)C5)ccc4n2[C@@]2(c4noc(=O)[nH]4)C[C@@H]2C)CC32CC=CCC2)cc(C)c1F` (stereo partly shown) [Compound 203], the pEC50 was ≥ 7.70.
With `Cc1cc(-n2nc3c(c2-n2ccn(-c4ccc5c(cnn5C)c4F)c2=O)[C@H](C)N(C(=O)c2cc4cc([C@H]5CCOC(C)(C)C5)ccc4n2[C@@]2(c4noc(=O)[nH]4)C[C@@H]2C)CC32CCC(O)C2)cc(C)c1F` (stereo partly shown) [Compound 209] the pEC50 was ≥ 7.70.
In the case of `Cc1cc(-n2nc3c(c2-n2ccn(-c4ccc5c(cnn5C)c4F)c2=O)[C@H](C)N(C(=O)c2cc4cc([C@H]5CCOC(C)(C)C5)ccc4n2[C@@]2(c4noc(=O)[nH]4)C[C@@H]2C)CC32CC(O)C2)cc(C)c1F` (stereo partly shown) [Compound 181], the pEC50 was ≥ 7.70.
Compound `C[C@H]1c2c(nn(-c3ccc(F)c(C4CC4)c3)c2-n2ccn(-c3ccc4c(cnn4C)c3F)c2=O)C2(CC2)CN1C(=O)c1cc2cc(C3CCOC(C)(C)C3)ccn2c1C1(c2noc(=O)[nH]2)CC1` (single isomer, unassigned) [Compound 186-B] has a pEC50 of 7.00 to 7.70.
With `Cc1cc(-n2nc3c(c2-n2ccn(-c4ccc5c(ccn5C)c4F)c2=O)[C@H](C)N(C(=O)c2cc4cc([C@H]5CCOC(C)(C)C5)ccc4n2[C@@]2(c4noc(=O)[nH]4)C[C@@H]2C)CC32CCCNC2)cc(C)c1F` (single isomer, unassigned) [Compound 51-A] the pEC50 was ≥ 7.70.
With `Cc1cc(-n2nc3c(c2-n2ccn(-c4ccc5c(cnn5C)c4F)c2=O)[C@H](C)N(C(=O)c2cc4cc([C@H]5CCOC(C)(C)C5)ccc4n2[C@@]2(c4noc(=O)[nH]4)C[C@@H]2C)CC32CCCN2)cc(C)c1F` (stereo partly shown) [Compound 31] the pEC50 was ≥ 7.70.
In the case of `Cc1cc(-n2nc3c(c2-n2ccn(-c4ccc5c(cnn5C)c4F)c2=O)[C@H](C)N(C(=O)c2cc4cc([C@H]5CCOC(C)(C)C5)ccc4n2[C@@]2(c4noc(=O)[nH]4)C[C@@H]2C)CC32CS(=O)(=O)C2)cc(C)c1F` [Compound 191], the pEC50 was ≥ 7.70.
For `Cc1cc(-n2nc3c(c2-n2ccn(-c4ccc5c(cnn5C)c4F)c2=O)[C@H](C)N(C(=O)c2cc4cc([C@H]5CCOC(C)(C)C5)ccc4n2[C@@]2(c4noc(=O)[nH]4)C[C@@H]2C)CC32CCN(S(C)(=O)=O)CC2)cc(C)c1F` [Compound 156], the pEC50 was ≥ 7.70.
`Cc1cc(-n2nc3c(c2-n2ccn(-c4ccc5c(cnn5C)c4F)c2=O)[C@H](C)N(C(=O)c2cc4cc([C@H]5CCOC(C)(C)C5)ccc4n2[C@@]2(c4noc(=O)[nH]4)C[C@@H]2C)CC32CCC(O)CC2)cc(C)c1F` (stereo partly shown) [Compound 199] was tested, and the pEC50 was ≥ 7.70.
